Experimental data published in paper PMC3176662 (Journal of biomolecular screening, 2011).

Columns and labels:
[1] = molecular target: T1, Francisella tularensis GyrB (ATP binding domain) (Francisella tularensis subsp. tularensis, UniProt Q5NHE7); assay: biochemical
[2] = molecular target: E. coli gyrase A2B2 heterotetramer (Escherichia coli, UniProt P0AES6); assay: Gyrase activity; assay type: biochemical; conditions: 50 μM compound, 0.5 μg relaxed pHOT1 DNA, 1 h 37 °C
[3] = molecular target: T1, Francisella tularensis GyrB (ATP binding domain); assay: biochemical; conditions: 1 h, read-out: decrease of binding of Novo-TRX to GyrB

T1 sequence (Q5NHE7 1-805): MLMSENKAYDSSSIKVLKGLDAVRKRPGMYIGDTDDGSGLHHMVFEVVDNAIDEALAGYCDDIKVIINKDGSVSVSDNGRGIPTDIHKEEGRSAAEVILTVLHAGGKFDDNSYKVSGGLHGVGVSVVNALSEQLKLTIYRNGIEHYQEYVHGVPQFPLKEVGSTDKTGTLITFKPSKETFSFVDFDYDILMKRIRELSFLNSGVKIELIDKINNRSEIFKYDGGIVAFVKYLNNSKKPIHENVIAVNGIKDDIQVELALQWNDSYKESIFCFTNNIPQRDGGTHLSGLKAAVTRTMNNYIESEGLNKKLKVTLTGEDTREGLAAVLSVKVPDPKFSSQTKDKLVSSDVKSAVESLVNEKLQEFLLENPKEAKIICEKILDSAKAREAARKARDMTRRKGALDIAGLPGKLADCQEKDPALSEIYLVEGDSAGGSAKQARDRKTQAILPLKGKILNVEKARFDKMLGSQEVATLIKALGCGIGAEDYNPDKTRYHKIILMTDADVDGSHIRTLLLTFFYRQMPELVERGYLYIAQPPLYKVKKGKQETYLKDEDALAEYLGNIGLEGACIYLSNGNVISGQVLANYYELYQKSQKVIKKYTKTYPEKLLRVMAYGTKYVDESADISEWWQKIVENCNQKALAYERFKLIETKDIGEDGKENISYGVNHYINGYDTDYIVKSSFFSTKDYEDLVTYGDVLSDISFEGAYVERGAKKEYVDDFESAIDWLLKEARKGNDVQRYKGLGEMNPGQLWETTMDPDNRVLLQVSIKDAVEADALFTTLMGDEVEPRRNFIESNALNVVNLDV

**Q.** What does the source list for `CCNC(=O)Nc1nc2cc(-c3cccnc3)cc(-c3ccccn3)c2[nH]1` [Vertex-13, N-ethyl-N′-[7-(2-pyridinyl)-5-(3-pyridinyl)-1H-benzimidazol-2-yl]-urea]?
**A.** IC50 [1]: 393 nM; potency relative to novobiocin in the F. tularensis system (fold less potent) [1]: approximately 10 fold

**Q.** Which results are given for `COc1cccc2c1C(=O)c1c(O)c3c(c(O)c1C2=O)C[C@@](O)(C(C)=O)C[C@@H]3O[C@H]1C[C@H](N)[C@H](O)[C@H](C)O1` [daunorubicin]?
**A.** inhibition of supercoiling of relaxed DNA [2]: less clear; IC50 [1]: 1460 nM

**Q.** With `COc1cccc2c1C(=O)c1c(O)c3c(c(O)c1C2=O)C[C@@](O)(C(=O)CO)C[C@@H]3O[C@H]1C[C@H](N)[C@H](O)[C@H](C)O1` [doxorubicin] as the compound, how does the “inhibition of supercoiling of relaxed DNA” value (shortened to “inhibition … of relaxed DNA”) [2] read?
**A.** inhibit supercoiling to the level of the no-gyrase control

**Q.** And the IC50 [1]?
**A.** 310 nM

**Q.** With `COc1cccc2c1C(=O)c1c(O)c3c(c(O)c1C2=O)C[C@@](O)(C(=O)CO)C[C@@H]3O[C@H]1C[C@H](N)[C@@H](O)[C@H](C)O1` [epirubicin] as the compound, how does the “inhibition … of relaxed DNA” value [2] read?
**A.** inhibit supercoiling to the level of the no-gyrase control

**Q.** And the IC50 [1]?
**A.** 1270 nM

**Q.** How did the “inhibition … of relaxed DNA” value [2] turn out when `CC(=O)[C@]1(O)Cc2c(O)c3c(c(O)c2[C@@H](O[C@H]2C[C@H](N)[C@H](O)[C@H](C)O2)C1)C(=O)c1ccccc1C3=O` [idarubicin] was run?
**A.** less clear

**Q.** What about the IC50 [1] of the same compound?
**A.** 1580 nM

**Q.** How did the inhibition at 10 µM [3] turn out when `CO[C@@H]1[C@@H](OC(N)=O)[C@@H](O)[C@H](Oc2ccc3c(O)c(NC(=O)c4ccc(O)c(CC=C(C)C)c4)c(=O)oc3c2C)OC1(C)C` [novobiocin] was run?
**A.** > 40%
